From patent US20240123022A1, “A STABLE ANTI-ANGIOGENIC AND ANTI-INFLAMMATORY PHARMACEUTICAL FORMULATION AND PHARMACEUTICAL COMBINATION FOR TREATMENT AND PREVENTION OF PSORIASIS” (priority 2021, published 2024)

Tests used:
in vitro = details: human, microsomes
Description: Metabolic stability assay was performed to determine in vitro half-life and intrinsic clearance of test item. […] Following centrifugation, the supernatant was analyzed on HPLC-UV.

[1] = tested on: human endothelial cell line (EA.hy926); details: EA.hy926, 1-5000 μg/ml, 72 h
Description: Here MTT assay and BioTek Synergy HT multimode reader were used to determine the cell viability in test cells. […] Once within about 72 hours of incubation, re-treatment was done for test items at every 24 hours in 3 additions. 150 μl of DMSO was added to aspirated supernatant and observed at 540 nm using BioTek Synergy HT plate reader.

[2] = Plasma stability in human plasma; assay type: in vitro ADME
Description: Following centrifugation, the supernatant was analyzed on HPLC-UV.

[3] = tested on: Imiquimod (IMQ) induced psoriasis model using Balb/c mice; experiment: IMQ induced psoriasis model, routes of administration (SC, IM, IV, IP); assay type: in vivo; details: for TNF-α reduced to / reduction in IL-23: ear homogenate
Description: The study was conducted in healthy, adult female Balb/c mice. All the animals were acclimatized to laboratory condition prior to experiment initiation.
Animals were randomized into 10 groups containing 6 animals each group, based on their body weight. Approximately 63 mg of IMQ cream (5%) (containing 3.125 mg of IMQ) was weighed and applied topically each on dorsal area (shaved back) and right ear of mice for 8 days in group 3-10. Groups 1 and 2 were served as controls and were treated with appropriate vehicle. Later groups 1 and 2 were merged for better calculation purpose.
Body weight, ear thickness and dorsal skin thickness was measured daily using digital caliper. Erythema index was recorded by mexameter and clinical scoring was also done daily for dorsal psoriatic area.
On day 9, animals were anesthetized for blood collection followed by euthanasia by C02 asphyxiation as per in-house approved standard protocol.
About 4 mm ear punch biopsy was collected, weighed and fixed in about 10% neutral buffer formalin for histopathological analysis (via H and E staining). Remaining ear was excised and stored at about −80° C. for inflammatory cytokine analysis. Dorsal skin was also collected, and half was kept in formalin. Spleen was also collected and weighed and kept in formalin.
In this study three different routes i.e., SC, IM and IV at different doses ranging from 0.3, 0.6 and 1.2 mg/kg were used to see dose response curve, the results were as follows: […]

[4] = Stability of IS217 1% cream, long term 30° C. ± 2° C./65% RH; assay type: physicochemical; details: 24 months at room temperature
Description: The purpose of stability testing is to provide evidence on how the quality of a drug product varies with time under the influence of a variety of environmental factors such as temperature, humidity, etc. and to establish a re-test period for the drug substance or a shelf life for the drug product and recommended storage conditions. The study was conducted according to the WHO and schedule-Y guidelines.
The drug product was manufactured by Issar Pharma. Three batches were manufactured at pilot scale level by the same synthetic route as, and using a method of manufacture and procedure that simulates the final process to be used for, production batches. The overall quality of the batches of drug product placed on these stability studies will be representative of the quality of the material to be made on a production scale.
A soft squeezable plastic tube will be used as primary packing material. The tube is a cylindrical, hollow piece with a rounded shape design.
This study has included testing of those attributes of the drug product that are susceptible to change during storage and are likely to influence quality, safety and/or efficacy. The testing was covered, as appropriate, the physical and chemical attributes. […]

HUVEC cells = assay type: cell-based, human; details: 100-1000 μg/ml
Description: The study was performed to determine anti-angiogenic effect of IS217 in HUVEC cell line by assessing anti-proliferative effects of test item. Here XTT assay was used to determine the cell viability in test cells. HUVEC cells were treated with the test item IS217 (100-1000 μg/ml) and bevacizumab (1 mg/ml) concentrations was used as positive controls.

CYP3A4 = molecular target: T1, CYP3A4 (Homo sapiens, UniProt P08684); experiment: in vitro; assay type: in vitro ADME
T1 construct: purchased
Description: (§1) The study design determined inhibition potential of test item (IS217) for CYP3A4, CYP1A2, CYP2C9, CYP2D6 and CYP2C19 using high throughput inhibitor screening kit. The experiment was performed with concentrations range of 10 μg/mL to 0.005 μg/mL of test compound IS217. Positive controls taken were specific to individual kit, which were taken as follows:
(§2) At the end of incubation period, metabolism of fluorescent substrates to their metabolites was read using fluorescent multiwall spectrophotometer (Biotek reader). Very less (<20% at 10 μg/mL) to no inhibition potential was observed towards enzymes CYP3A4, CYP2C9, CYP2D6, CYP1A2 and CYP2C19.

CYP2D6 = molecular target: T2, CYP2D6 (Homo sapiens, UniProt P10635); experiment: in vitro; assay type: in vitro ADME
T2 construct: purchased
Description: as §1, §2

CYP1A2 = molecular target: T3, CYP1A2 (Homo sapiens, UniProt P05177); experiment: in vitro; assay type: in vitro ADME
T3 construct: purchased
Description: as §1, §2

CYP2C19 = molecular target: T4, CYP2C19 (Homo sapiens, UniProt P33261); experiment: in vitro; assay type: in vitro ADME
T4 construct: purchased
Description: as §1, §2

CYP2C9 = molecular target: T5, CYP2C9 (Homo sapiens, UniProt P11712); experiment: in vitro; assay type: in vitro ADME
T5 construct: purchased
Description: as §1, §2

T3 sequence (P05177 whole entry): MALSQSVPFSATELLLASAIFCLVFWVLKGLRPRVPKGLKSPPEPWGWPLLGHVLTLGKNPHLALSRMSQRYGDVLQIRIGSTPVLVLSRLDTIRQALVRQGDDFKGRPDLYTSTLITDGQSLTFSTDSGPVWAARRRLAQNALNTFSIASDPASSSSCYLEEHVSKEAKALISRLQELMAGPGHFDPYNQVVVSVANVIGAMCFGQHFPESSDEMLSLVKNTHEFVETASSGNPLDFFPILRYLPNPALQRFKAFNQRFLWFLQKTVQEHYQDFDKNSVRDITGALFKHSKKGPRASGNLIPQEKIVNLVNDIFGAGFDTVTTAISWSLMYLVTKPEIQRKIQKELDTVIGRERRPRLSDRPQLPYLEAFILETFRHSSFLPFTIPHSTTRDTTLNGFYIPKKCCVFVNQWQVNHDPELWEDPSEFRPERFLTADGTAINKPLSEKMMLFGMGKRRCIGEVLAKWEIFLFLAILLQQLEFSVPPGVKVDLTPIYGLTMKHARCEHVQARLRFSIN
T1 sequence (P08684 whole entry): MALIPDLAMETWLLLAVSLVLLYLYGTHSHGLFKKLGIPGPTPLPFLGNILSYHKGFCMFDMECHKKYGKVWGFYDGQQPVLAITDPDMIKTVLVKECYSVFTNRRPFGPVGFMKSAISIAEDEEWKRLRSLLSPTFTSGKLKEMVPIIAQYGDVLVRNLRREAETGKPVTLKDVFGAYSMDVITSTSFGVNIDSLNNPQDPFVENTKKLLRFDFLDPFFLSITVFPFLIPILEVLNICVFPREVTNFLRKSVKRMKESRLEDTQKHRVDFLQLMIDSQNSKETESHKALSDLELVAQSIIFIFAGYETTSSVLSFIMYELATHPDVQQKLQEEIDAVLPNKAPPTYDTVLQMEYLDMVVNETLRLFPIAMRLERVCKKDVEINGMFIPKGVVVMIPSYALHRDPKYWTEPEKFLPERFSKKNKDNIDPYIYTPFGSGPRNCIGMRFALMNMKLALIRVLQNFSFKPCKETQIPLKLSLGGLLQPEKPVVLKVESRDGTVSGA
T5 sequence (P11712 whole entry): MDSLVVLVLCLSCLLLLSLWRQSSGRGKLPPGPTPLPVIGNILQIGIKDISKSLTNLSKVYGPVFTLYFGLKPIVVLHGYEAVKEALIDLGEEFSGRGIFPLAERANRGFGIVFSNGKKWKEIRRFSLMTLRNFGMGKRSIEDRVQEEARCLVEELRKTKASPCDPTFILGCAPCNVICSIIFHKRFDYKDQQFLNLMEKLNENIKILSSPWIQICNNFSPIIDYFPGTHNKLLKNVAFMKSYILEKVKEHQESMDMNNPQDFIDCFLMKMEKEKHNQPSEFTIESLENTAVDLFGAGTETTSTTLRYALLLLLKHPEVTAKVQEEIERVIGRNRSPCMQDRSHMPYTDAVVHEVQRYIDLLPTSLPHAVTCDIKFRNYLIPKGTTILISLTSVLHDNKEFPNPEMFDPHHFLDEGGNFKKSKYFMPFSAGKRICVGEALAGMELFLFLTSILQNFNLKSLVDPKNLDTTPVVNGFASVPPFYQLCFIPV
T2 sequence (P10635 whole entry): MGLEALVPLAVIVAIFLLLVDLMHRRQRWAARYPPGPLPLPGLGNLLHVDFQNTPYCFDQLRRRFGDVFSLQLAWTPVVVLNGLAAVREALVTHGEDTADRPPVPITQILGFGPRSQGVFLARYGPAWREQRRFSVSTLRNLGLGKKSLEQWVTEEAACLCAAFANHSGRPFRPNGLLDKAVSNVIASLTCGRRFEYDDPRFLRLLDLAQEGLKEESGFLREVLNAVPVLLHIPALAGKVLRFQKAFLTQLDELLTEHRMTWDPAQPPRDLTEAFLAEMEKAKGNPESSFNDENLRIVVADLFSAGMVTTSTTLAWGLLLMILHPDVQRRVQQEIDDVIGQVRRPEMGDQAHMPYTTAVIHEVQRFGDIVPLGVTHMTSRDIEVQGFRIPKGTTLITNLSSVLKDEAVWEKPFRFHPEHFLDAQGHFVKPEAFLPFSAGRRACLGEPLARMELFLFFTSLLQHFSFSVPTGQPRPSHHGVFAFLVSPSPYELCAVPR
T4 sequence (P33261 whole entry): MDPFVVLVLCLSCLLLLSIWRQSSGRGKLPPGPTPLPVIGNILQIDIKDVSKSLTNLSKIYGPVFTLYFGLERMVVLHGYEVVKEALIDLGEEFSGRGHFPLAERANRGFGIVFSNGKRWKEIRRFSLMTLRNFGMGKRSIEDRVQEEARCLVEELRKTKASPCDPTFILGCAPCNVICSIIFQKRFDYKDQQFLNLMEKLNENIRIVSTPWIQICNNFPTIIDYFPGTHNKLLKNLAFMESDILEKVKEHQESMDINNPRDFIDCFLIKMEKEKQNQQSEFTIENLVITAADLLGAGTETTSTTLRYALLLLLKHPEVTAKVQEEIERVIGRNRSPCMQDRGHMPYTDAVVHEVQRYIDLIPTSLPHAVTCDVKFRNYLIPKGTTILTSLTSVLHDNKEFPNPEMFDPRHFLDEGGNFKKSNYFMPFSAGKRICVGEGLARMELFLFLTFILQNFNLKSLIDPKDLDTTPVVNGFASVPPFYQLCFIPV

“H-FAKKFAKKFK-OH [IS217, H-Phe-Ala-Lys-Lys-Phe-Ala-Lys-Lys-Phe-Lys-OH]” showed a half-life at 100 μg/ml (in vitro) of 0.799 h, a metabolised at 1 h, 100 μg/ml (in vitro) of ~58% and a microsomal CLint at 100 μg/ml (in vitro) of 14.5 µL/min/mg. The “percentage inhibition of FBS induced proliferation of endothelial cells” value [1] was “effective upto 2000 μg/ml only”, the remaining at 0.25 h, 100 μg/ml ([2]; human plasma, 15 minutes, read-out: IS217 remaining) was 90.7% and the remaining at 0.5 h, 100 μg/ml ([2]; human plasma, 30 minutes, read-out: IS217 remaining) was 105%. The remaining at 0.75 h, 100 μg/ml ([2]; human plasma, 45 minutes, read-out: IS217 remaining) was 85.2%, the remaining at 1 h, 100 μg/ml ([2]; human plasma, 60 minutes, read-out: IS217 remaining) was 91.1% and the plasma stability ([2]; human, plasma) was “stable in human plasma”. For the same substance, the half-life at 100 μg/ml ([2]; human, plasma, from 60 minutes incubation, read-out: calculated half-life in human plasma) was 6.92 h, the ear biopsy weight ([3]; 0.3 mg/kg SC, day 9, vs other doses and routes) was “maximum effect” and the “hyperkeratosis, edema, inflammatory cell infiltration and ear thickness in histopathology examination of ear” value ([3]; 0.3 mg/kg SC, p < 0.01) was “reduced”. For the same substance, the “TNF-α reduced to” value ([3]; 0.6 mg/kg) was 13.94%, the “reduction in IL-23” value ([3]; 0.6 mg/kg) was 49.68% and the “TNF-α level in ear tissue homogenate” value ([3]; 1.2 mg/kg SC) was “partially reduced”. The “TNF-α and IL-23 levels, rete peg proliferation in histopathology examination of ear” value ([3]; 1.2 mg/kg SC, p < 0.01) was “dose lowered”, the “absolute ear thickness reduction, maximum inhibition” value ([3]; 1.2 mg/kg dose) was 80.36% and the “TNF-α reduced to” value ([3]; 1.2 mg/kg) was 24.25%. The “reduction in IL-23” value ([3]; 1.2 mg/kg) was 59.85%, the “reduction of IL-23 levels” value ([3]; 0.3-1.2 mg/kg SC, by all above observations) was “prominent dose dependent results” and the “percentage inhibition of ear inflammation, maximum inhibitory activity” value ([3]; IM route) was 59.12%. The body weight ([3]; IS217 SC, IM, IV, IP, 8 days) was “No significant change”, the “IL-17 in ear tissue homogenate” value ([3]; IV treatment) was “maximum inhibition” and the spleen weight reduction ([3]; IV treatment group, not statistically significant) was “maximum reduction”. For the same substance, the spleen weight reduction ([3]; SC treatment groups) was “No effect”, the “IMQ induced hyperkeratosis, edema, Rete Peg proliferation, inflammatory cell infiltration (ear histopathology)” value ([3]; SC, low dose of 0.3 mg/kg) was “maximum reduction” and the “cumulative psoriatic score of dorsal area” value ([3]; any treatment group) was “No significant reduction”. For the same substance, the erythema index ([3]; any treatment group) was “No significant reduction”, the “percentage inhibition of ear inflammation, maximum inhibitory response” value ([3]; low dose, from day 6) was 32.08% and the “IL-17A and spleen weight” value ([3]; mouse, in vivo) was “no trend”. The “stability of drug product (1% cream)” value [4] was “stable”, the “percentage inhibition of FBS induced proliferation of HUVEC cells” value (HUVEC cells) was “effective upto 1000 μg/ml only” and the inhibition at 10 μg/mL (CYP3A4) was < 20%. For the same substance, the inhibition at 10 μg/mL (CYP2D6) was < 20%, the inhibition at 10 μg/mL (CYP1A2) was < 20% and the “inhibition potential towards CYP1A2 as compared to others” value (CYP1A2) was “slightly higher potential”. For the same substance, the inhibition at 10 μg/mL (CYP2C19) was < 20% and the inhibition at 10 μg/mL (CYP2C9) was < 20%.
